Reference: patent publication US12187728B2 (Raze Therapeutics, Inc., priority 2015, dated 2025)

Target: T1, Human MTHFD2 (Homo sapiens, UniProt P13995)
T1 construct: residues 36-350 in Uniport ID P13995; His6 (N); made in house; host or cells: E. coli
T1 sequence (P13995 36-350): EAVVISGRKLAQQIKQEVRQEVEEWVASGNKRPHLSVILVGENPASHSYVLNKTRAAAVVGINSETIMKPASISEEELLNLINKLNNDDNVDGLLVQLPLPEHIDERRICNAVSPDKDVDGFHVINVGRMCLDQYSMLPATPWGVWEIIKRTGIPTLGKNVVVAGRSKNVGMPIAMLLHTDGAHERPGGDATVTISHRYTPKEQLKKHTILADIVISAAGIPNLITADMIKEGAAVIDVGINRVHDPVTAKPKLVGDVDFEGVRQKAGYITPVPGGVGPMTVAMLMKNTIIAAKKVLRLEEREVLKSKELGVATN
Experiment: MTHFD2 Activity Assay (dehydrogenase activity, diaphorase/resazurin coupled fluorescence)
Type: biochemical
Conditions: inhibitory activity (IC50 and/or binding constant); 0.2 nM MTHFD2, 11 concentrations
Outline: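 Steps: compound + 0.2 nM enzyme, 15 min, pH 8.0 Hepes buffer; add 70 μM CH2-THF, 1 mM NAD+, 100 μM resazurin, diaphorase; 30 min; quench with EDTA; read fluorescence. Data normalized to DMSO (100%) and no-enzyme (0%) wells.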

Row | IC50 [µM] | SMILES
1 | 0.01 to 1 | Cn1c(NC2CCOCC2)nc2c1c(=O)n(Cc1ccc(Cl)c(Cl)c1)c(=O)n2C [Example 48, 1-[(3,4-dichlorophenyl)methyl]-3,7-dimethyl-8-[(oxan-4-yl)amino]-2,3,6,7-tetrahydro-1H-purine-2,6-dione]
2 | 0.01 to 1 | Cn1c(N[C@H]2CCOC2)nc2c1c(=O)n(Cc1ccc(Cl)c(Cl)c1)c(=O)n2C [Example 49, 1-[(3,4-dichlorophenyl)methyl]-3,7-dimethyl-8-{[(3S)-oxolan-3-yl]amino}-2,3,6,7-tetrahydro-1H-purine-2,6-dione]
3 | 0.01 to 1 | Cn1c(N[C@@H]2CC[C@H](C(=O)O)C2)nc2c1c(=O)n(Cc1ccc(Cl)c(Cl)c1)c(=O)n2C [Example 50, (1S,3R)-3-({1-[(3,4-dichlorophenyl)methyl]-3,7-dimethyl-2,6-dioxo-2,3,6,7-tetrahydro-1H-purin-8-yl}amino)cyclopentane-1-carboxylic acid]
4 | 0.01 to 1 | C[C@@H](CCO)Nc1nc2c(c(=O)n(Cc3ccc4sccc4c3)c(=O)n2C)n1C [Example 51, 1-(1-benzothiophen-5-ylmethyl)-8-{[(2S)-4-hydroxybutan-2-yl]amino}-3,7-dimethyl-2,3,6,7-tetrahydro-1H-purine-2,6-dione]
5 | 0.01 to 1 | Cn1c(NCCCO)nc2c1c(=O)n(Cc1ccc3sccc3c1)c(=O)n2C [Example 52, 1-(1-benzothiophen-5-ylmethyl)-8-[(3-hydroxypropyl)amino]-3,7-dimethyl-2,3,6,7-tetrahydro-1H-purine-2,6-dione]
6 | 0.01 to 1 | Cn1c(NC(CO)CO)nc2c1c(=O)n(Cc1ccc(Cl)c(Cl)c1)c(=O)n2C [Example 53, 1-[(3,4-dichlorophenyl)methyl]-8-[(1,3-dihydroxypropan-2-yl)amino]-3,7-dimethyl-2,3,6,7-tetrahydro-1H-purine-2,6-dione]
7 | 0.01 to 1 | Cn1c(NCCOCCO)nc2c1c(=O)n(Cc1ccc(Cl)c(Cl)c1)c(=O)n2C [Example 54, 1-[(3,4-dichlorophenyl)methyl]-8-{[2-(2-hydroxyethoxy)ethyl]amino}-3,7-dimethyl-2,3,6,7-tetrahydro-1H-purine-2,6-dione]
8 | 5 to 10 | Cn1c(NCCCO)nc2c1c(=O)n(Cc1ccc(C(F)(F)F)cc1)c(=O)n2C [Example 56, 8-[(3-hydroxypropyl)amino]-3,7-dimethyl-1-{[4-(trifluoromethyl)phenyl]methyl}-2,3,6,7-tetrahydro-1H-purine-2,6-dione]
9 | 5 to 10 | C[C@@H](O)CNc1nc2c(c(=O)n(Cc3ccc(C(F)(F)F)cc3)c(=O)n2C)n1C [Example 57, 8-{[(2R)-2-hydroxypropyl]amino}-3,7-dimethyl-1-{[4-(trifluoromethyl)phenyl]methyl}-2,3,6,7-tetrahydro-1H-purine-2,6-dione]
10 | 1 to 5 | Cn1c(NC2CCCCC2)nc2c1c(=O)n(Cc1ccc(Cl)c(Cl)c1)c(=O)n2C [Example 59, 8-(cyclohexylamino)-1-[(3,4-dichlorophenyl)methyl]-3,7-dimethyl-2,3,6,7-tetrahydro-1H-purine-2,6-dione]
11 | 1 to 5 | Cn1c(N[C@@H]2CCNC2)nc2c1c(=O)n(Cc1ccc(Cl)c(Cl)c1)c(=O)n2C [Example 60, 1-[(3,4-dichlorophenyl)methyl]-3,7-dimethyl-8-{[(3R)-pyrrolidin-3-yl]amino}-2,3,6,7-tetrahydro-1H-purine-2,6-dione]
12 | 1 to 5 | Cn1c(N[C@H]2CCNC2)nc2c1c(=O)n(Cc1ccc(Cl)c(Cl)c1)c(=O)n2C [Example 61, 1-[(3,4-dichlorophenyl)methyl]-3,7-dimethyl-8-{[(3S)-pyrrolidin-3-yl]amino}-2,3,6,7-tetrahydro-1H-purine-2,6-dione]
13 | > 10 | Cn1c(NCCCO)nc2c1c(=O)n(-c1ccc(Cl)c(Cl)c1)c(=O)n2C [Example 62, 1-(3,4-dichlorophenyl)-8-[(3-hydroxypropyl)amino]-3,7-dimethyl-2,3,6,7-tetrahydro-1H-purine-2,6-dione]
14 | 0.01 to 1 | Cn1c(N[C@@H]2CCOC2)nc2c1c(=O)n(Cc1ccc(Cl)c(Cl)c1)c(=O)n2C [Example 63, 1-[(3,4-dichlorophenyl)methyl]-3,7-dimethyl-8-{[(3R)-oxolan-3-yl]amino}-2,3,6,7-tetrahydro-1H-purine-2,6-dione]
15 | 0.01 to 1 | Cn1c(N[C@H]2CC[C@@H](C(=O)O)C2)nc2c1c(=O)n(Cc1ccc(Cl)c(Cl)c1)c(=O)n2C [Example 64, (1R,3S)-3-(1-(3,4-dichlorobenzyl)-3,7-dimethyl-2,6-dioxo-2,3,6,7-tetrahydro-1H-purin-8-ylamino)cyclopentanecarboxylic acid]
16 | 1 to 5 | Cn1c(NC2CNC2)nc2c1c(=O)n(Cc1ccc(Cl)c(Cl)c1)c(=O)n2C [Example 65, 8-[(azetidin-3-yl)amino]-1-[(3,4-dichlorophenyl)methyl]-3,7-dimethyl-2,3,6,7-tetrahydro-1H-purine-2,6-dione]
17 | 0.01 to 1 | Cn1c(N[C@H]2C[C@@H](O)C2)nc2c1c(=O)n(Cc1ccc(Cl)c(Cl)c1)c(=O)n2C [Example 66, 1-[(3,4-dichlorophenyl)methyl]-3,7-dimethyl-8-{[(cis)-3-hydroxycyclobutyl]amino}-2,3,6,7-tetrahydro-1H-purine-2,6-dione]
18 | 0.01 to 1 | Cn1c(NCCCO)nc2c1c(=O)n(Cc1ccc(Cl)c(C(F)(F)F)c1)c(=O)n2C [Example 67, 1-{[4-chloro-3-(trifluoromethyl)phenyl]methyl}-8-[(3-hydroxypropyl)amino]-3,7-dimethyl-2,3,6,7-tetrahydro-1H-purine-2,6-dione]
19 | 1 to 5 | Cn1c(N[C@H]2CCCNC2)nc2c1c(=O)n(Cc1ccc(Cl)c(Cl)c1)c(=O)n2C [Example 68, 1-[(3,4-dichlorophenyl)methyl]-3,7-dimethyl-8-{[(3S)-piperidin-3-yl]amino}-2,3,6,7-tetrahydro-1H-purine-2,6-dione]
20 | 0.01 to 1 | Cn1c(N[C@@H]2CCCNC2)nc2c1c(=O)n(Cc1ccc(Cl)c(Cl)c1)c(=O)n2C [Example 69, 1-[(3,4-dichlorophenyl)methyl]-3,7-dimethyl-8-{[(3R)-piperidin-3-yl]amino}-2,3,6,7-tetrahydro-1H-purine-2,6-dione]
21 | > 10 | CC(c1ccc(Cl)c(Cl)c1)n1c(=O)c2c(nc(NCCCO)n2C)n(C)c1=O (stereo not drawn) [Example 72, 1-[1-(3,4-dichlorophenyl)ethyl]-8-[(3-hydroxypropyl)amino]-3,7-dimethyl-2,3,6,7-tetrahydro-1H-purine-2,6-dione]
22 | 1 to 5 | Cn1c(NCCCO)nc2c1c(=O)n(Cc1ccc(C(F)(F)F)c(Cl)c1)c(=O)n2C [Example 73, 1-{[3-chloro-4-(trifluoromethyl)phenyl]methyl}-8-[(3-hydroxypropyl)amino]-3,7-dimethyl-2,3,6,7-tetrahydro-1H-purine-2,6-dione]
23 | 1 to 5 | Cn1c(N[C@@H]2CC[C@H](C(=O)O)C2)nc2c1c(=O)n(Cc1ccc(C(F)(F)F)cc1)c(=O)n2C [Example 77, (1S,3R)-3-[(3,7-dimethyl-2,6-dioxo-1-{[4-(trifluoromethyl)phenyl]methyl}-2,3,6,7-tetrahydro-1H-purin-8-yl)amino]cyclopentane-1-carboxylic acid]
24 | 1 to 5 | Cn1c(NC2CCCC(N)C2)nc2c1c(=O)n(Cc1ccc(Cl)c(Cl)c1)c(=O)n2C (stereo not drawn) [Example 85, 8-((3-aminocyclohexyl)amino)-1-(3,4-dichlorobenzyl)-3,7-dimethyl-3,7-dihydro-1H-purine-2,6-dione]
25 | 0.01 to 1 | Cn1c(NC2CCNC2=O)nc2c1c(=O)n(Cc1ccc(Cl)c(Cl)c1)c(=O)n2C (stereo not drawn) [Example 86, 1-[(3,4-dichlorophenyl)methyl]-3,7-dimethyl-8-[(2-oxopyrrolidin-3-yl)amino]-2,3,6,7-tetrahydro-1H-purine-2,6-dione]
26 | 0.01 to 1 | Cn1c(N[C@H]2CC[C@@H](C(=O)O)C2)nc2c1c(=O)n(Cc1ccc3sccc3c1)c(=O)n2C [Example 87, (1R,3S)-3-{[1-(1-benzothiophen-5-ylmethyl)-3,7-dimethyl-2,6-dioxo-2,3,6,7-tetrahydro-1H-purin-8-yl]amino}cyclopentane-1-carboxylic acid]
27 | 1 to 5 | Cn1c(=O)n(Cc2ccc(Cl)c(Cl)c2)c(=O)c2[nH]c(NCCCO)nc21 [Example 90, 1-[(3,4-dichlorophenyl)methyl]-8-[(3-hydroxypropyl)amino]-3-methyl-2,3,6,7-tetrahydro-1H-purine-2,6-dione]
28 | 0.01 to 1 | Cn1c(N[C@H]2CCC[C@@H]2O)nc2c1c(=O)n(Cc1ccc(Cl)c(Cl)c1)c(=O)n2C [Example 92, 1-[(3,4-dichlorophenyl)methyl]-8-{[(1S,2S)-2-hydroxycyclopentyl]amino}-3,7-dimethyl-2,3,6,7-tetrahydro-1H-purine-2,6-dione]
29 | 0.01 to 1 | Cn1c(N[C@@H]2CCC[C@H]2O)nc2c1c(=O)n(Cc1ccc(Cl)c(Cl)c1)c(=O)n2C [Example 93, 1-[(3,4-dichlorophenyl)methyl]-8-{[(1R,2R)-2-hydroxycyclopentyl]amino}-3,7-dimethyl-2,3,6,7-tetrahydro-1H-purine-2,6-dione]
30 | 0.01 to 1 | Cn1c(N[C@H]2CCC[C@H]2O)nc2c1c(=O)n(Cc1ccc(Cl)c(Cl)c1)c(=O)n2C [Example 94, 1-[(3,4-dichlorophenyl)methyl]-8-{[(1S,2R)-2-hydroxycyclopentyl]amino}-3,7-dimethyl-2,3,6,7-tetrahydro-1H-purine-2,6-dione]
